# Reference: article PMC10586451, “Design, Synthesis, Pharmacological Activities, Structure–Activity Relationship, and In Silico Studies of Novel 5-Substituted-2-(morpholinoimino)-thiazolidin-4-ones” (ACS Omega, 2023)
# Values joined by “and” are separate entries in the source; they are usually repeats but may differ in a detail not shown here. Equal values may be shown once. Read-outs that look alike come from different tables or passages of the source.
# Key:
# [1] = β-carotene-linoleic acid assay (antioxidant); conditions: mean ± SEM of three parallel measurements
# Experimental: (§1) DMSO solutions of four different concentrations (12.5, 25, 50, and 100 μM) of the synthesized compound 1–26 were prepared. DMSO was used as a control, while BHA and α-TOC were used as antioxidant standards.
# [2] = DPPH radical scavenging assay; conditions: mean ± SEM of three parallel measurements
# Experimental: as §1
# [3] = ABTS cation radical scavenging assay; conditions: mean ± SEM of three parallel measurements
# Experimental: as §1
# [4] = CUPRAC assay (Cu(II) reducing power); conditions: concentration at 0.500 absorbance; mean ± SEM
# Experimental: as §1
# [5] = target: T1, Acetylcholinesterase (AChE) (Electrophorus electricus, UniProt O42275); assay: biochemical; conditions: for IC50: mean ± SEM of three parallel measurements
# T1 construct: Acetylcholinesterase (AChE) from electric eel; from tissue; host or cells: electric eel
# Experimental: (§2) Anticholinesterase activity of all was performed according to the Ellman’s method using a 96-well microplate reader. Acetylcholinesterase (AChE) from electric eel and butyrylcholinesterase (BChE) from horse serum were used. Acetylthiocholine iodide and butyrylthiocholine chloride were utilized as substrates. DTNB (5,50-dithiobis(2-nitrobenzoic) acid was used as a coloring agent to measure the anticholinesterase activity.[43] Measurements were obtained in triplicate.
# [6] = target: T2, butyrylcholinesterase (BChE) (Equus caballus, UniProt P81908); assay: biochemical; conditions: for IC50: mean ± SEM of three parallel measurements
# T2 construct: butyrylcholinesterase (BChE) from horse serum; from tissue; host or cells: horse serum
# Experimental: as §2
# tyrosinase = type: biochemical; conditions: mean ± SEM of three parallel measurements
# urease = urease (Canavalia ensiformis, UniProt P07374); assay: biochemical
# [7] = Selectivity index: IC50 for BChE/IC50 for AChE
# [8] = Selectivity index: IC50 for AChE/IC50 for BChE
# [9] = urease activity IC50, mean ± SEM of three parallel measurements
# T2 sequence (P81908 whole entry): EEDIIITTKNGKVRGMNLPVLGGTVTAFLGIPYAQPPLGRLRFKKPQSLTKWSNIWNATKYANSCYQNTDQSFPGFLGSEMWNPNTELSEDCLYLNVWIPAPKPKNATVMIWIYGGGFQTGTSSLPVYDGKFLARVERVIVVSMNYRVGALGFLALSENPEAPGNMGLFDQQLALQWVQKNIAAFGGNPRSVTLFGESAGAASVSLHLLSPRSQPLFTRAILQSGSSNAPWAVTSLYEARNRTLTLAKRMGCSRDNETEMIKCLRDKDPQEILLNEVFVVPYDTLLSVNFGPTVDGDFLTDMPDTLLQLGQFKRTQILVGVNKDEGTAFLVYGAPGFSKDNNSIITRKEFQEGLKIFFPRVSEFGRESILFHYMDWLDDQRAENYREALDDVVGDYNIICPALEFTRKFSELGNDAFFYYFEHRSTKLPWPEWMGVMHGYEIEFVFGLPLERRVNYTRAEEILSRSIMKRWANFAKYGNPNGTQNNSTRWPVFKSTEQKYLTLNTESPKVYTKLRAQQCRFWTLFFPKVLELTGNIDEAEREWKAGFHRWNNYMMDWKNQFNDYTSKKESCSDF
# urease, sequence (P07374 whole entry, looked up): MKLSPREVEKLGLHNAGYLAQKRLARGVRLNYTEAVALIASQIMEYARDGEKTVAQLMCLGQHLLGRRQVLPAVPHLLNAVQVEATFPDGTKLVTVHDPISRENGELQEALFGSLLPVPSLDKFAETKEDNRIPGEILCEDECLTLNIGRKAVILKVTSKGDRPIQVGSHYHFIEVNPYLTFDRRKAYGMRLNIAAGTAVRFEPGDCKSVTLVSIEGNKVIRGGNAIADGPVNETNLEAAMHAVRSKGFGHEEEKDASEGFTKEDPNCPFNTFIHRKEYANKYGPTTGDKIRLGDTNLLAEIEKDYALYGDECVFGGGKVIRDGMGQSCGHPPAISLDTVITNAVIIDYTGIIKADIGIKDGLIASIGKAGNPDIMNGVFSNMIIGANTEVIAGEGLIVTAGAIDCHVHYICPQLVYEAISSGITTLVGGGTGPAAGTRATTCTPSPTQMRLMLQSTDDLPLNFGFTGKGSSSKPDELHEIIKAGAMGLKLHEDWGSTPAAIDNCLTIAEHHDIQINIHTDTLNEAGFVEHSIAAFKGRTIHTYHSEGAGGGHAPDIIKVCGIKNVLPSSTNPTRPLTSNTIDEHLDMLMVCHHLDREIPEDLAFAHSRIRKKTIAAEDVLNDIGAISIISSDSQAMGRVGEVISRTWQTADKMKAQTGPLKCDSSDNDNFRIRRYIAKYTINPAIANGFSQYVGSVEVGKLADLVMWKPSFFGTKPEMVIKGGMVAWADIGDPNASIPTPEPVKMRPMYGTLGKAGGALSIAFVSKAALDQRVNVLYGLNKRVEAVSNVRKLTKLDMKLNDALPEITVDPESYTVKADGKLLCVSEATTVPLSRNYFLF
# T1 sequence (O42275 24-633): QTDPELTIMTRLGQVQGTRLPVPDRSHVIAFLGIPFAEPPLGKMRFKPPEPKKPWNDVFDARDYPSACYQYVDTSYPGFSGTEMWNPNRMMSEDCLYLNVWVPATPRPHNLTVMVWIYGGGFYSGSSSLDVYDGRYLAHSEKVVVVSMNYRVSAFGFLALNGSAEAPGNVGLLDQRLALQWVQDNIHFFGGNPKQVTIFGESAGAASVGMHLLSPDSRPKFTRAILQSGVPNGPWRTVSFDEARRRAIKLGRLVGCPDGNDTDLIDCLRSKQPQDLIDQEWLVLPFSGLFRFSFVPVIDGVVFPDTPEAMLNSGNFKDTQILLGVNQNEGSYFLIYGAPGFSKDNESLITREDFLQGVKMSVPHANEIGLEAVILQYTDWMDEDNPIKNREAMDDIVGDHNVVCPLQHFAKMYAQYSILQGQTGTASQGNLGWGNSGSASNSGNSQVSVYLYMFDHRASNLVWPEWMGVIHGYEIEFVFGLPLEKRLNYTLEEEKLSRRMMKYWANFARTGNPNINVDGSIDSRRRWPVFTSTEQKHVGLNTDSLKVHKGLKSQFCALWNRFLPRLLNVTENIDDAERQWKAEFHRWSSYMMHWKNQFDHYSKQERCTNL
Structure (SMILES),IC50 [1] [µM],IC50 [2] [µM],IC50 [3] [µM],CUPRAC assay A0.5 [4] [µM],"SI for AChE [5, 7]",IC50 [5] [µM],"SI for BChE [6, 8]",IC50 [6] [µM],IC50 (tyrosinase) [mM],IC50 (urease; [9]),"IC50 (urease; mean ± SEM of three parallel measurements, read-out: urease activity IC50) [µM]",SI for AChE [5],SI for BChE [6]
"O=C1C(=Cc2ccco2)SC(=NN2CCOCC2)N1c1ccccc1 [Compound 15, 5-(Furan-2-ylmethylene)-2-(morpholinoimino)-3-phenylthiazolidin-4-one]",29.7 ± 0.34,35.05 ± 0.29,32.2 ± 0.87,31.24 ± 0.00,1.37,27.4 ± 0.76,0.73,37.6 ± 0.61,5.19 ± 0.03,46.4 ± 1.08 µM,–,–,–
"O=C1C(=Cc2ccncc2)SC(=NN2CCOCC2)N1c1ccccc1 [Compound 23, 2-(Morpholinoimino)-3-phenyl-5-(pyridin-4-ylmethylene)thiazolidin-4-one]",34.6 ± 0.5,36.14 ± 0.16,32.72 ± 0.19,31.12 ± 0.00,1.29,19.7 ± 0.54,0.78,25.4 ± 0.26,8.05 ± 0.11,25 ± 0.54 µM,–,–,–
"Cc1ccsc1C=C1SC(=NN2CCOCC2)N(c2ccccc2)C1=O [Compound 17, 5-((3-Methylthiophene-2-yl)methylene)-2-(morpholinoimino)-3-phenylthiazolidin-4-one]",36 ± 0.58,36 ± 1,33.2 ± 0.65,27.65 ± 0.01,1.43,34.8 ± 0.53,0.70,49.8 ± 1.01,3.22 ± 0.7,40.22 ± 0.12 µM,–,–,–
"NC(N)=S [thiourea, reference compound]",–,–,–,–,–,–,–,–,–,–,24.2 ± 0.3,–,–
"O=C1C(=Cc2ccc(O)cc2)SC(=NN2CCOCC2)N1c1ccccc1 [Compound 5, 5-(4-Hydroxybenzaldehyde)-2-(morpholinoimino)-3 phenylthiazolidine-4-one]",36.2 ± 0.46,42.8 ± 0.53,28.74 ± 0.19,24.48 ± 0.02,1.38,27 ± 0.48,0.73,37.1 ± 0.57,28 ± 0.35,55.6 ± 0.81 µM,–,–,–
"O=C1C(=Cc2ccc([N+](=O)[O-])cc2)SC(=NN2CCOCC2)N1c1ccccc1 [Compound 9, 5-(4-Nitrobenzylidene)-2-(morpholinoimino)-3-phenylthiazolidin-4-one]",30.44 ± 0.17,32.3 ± 0.55,25.2 ± 0.37,21.87 ± 0.01,1.35,29.8 ± 0.81,0.74,40.19 ± 0.19,25.42 ± 0.12,51.7 ± 0.12 µM,–,–,–
"O=C1C(=Cc2ccc3[nH]ccc3c2)SC(=NN2CCOCC2)N1c1ccccc1 [Compound 25, 5-((1H-Indole-5-yl)methylene)-2-(morpholinoimino)-3-phenylthiazolidin-4-one]",33.6 ± 0.73,38.2 ± 0.88,34.05 ± 0.27,39.50 ± 0.01,1.29,19.8 ± 0.5,0.78,25.5 ± 0.78,8.4 ± 0.64,21.7 ± 0.06 µM,–,–,–
O=C1C(=Cc2ccc(N(CCCl)CCCl)cc2)SC(=NN2CCOCC2)N1c1ccccc1 [Compound 11],11.9 ± 1.3,24.6 ± 0.8,23.2 ± 0.34,11.82 ± 0.00,–,21.45 ± 0.06,–,32.8 ± 0.48,23.4 ± 0.5,31.5 ± 0.49 µM,–,1.53,0.66
"O=C1C(=Cc2ccc3ccccc3n2)SC(=NN2CCOCC2)N1c1ccccc1 [Compound 26, 2-(Morpholinoimino)-3-phenyl-5-(quinolin-2-ylmethylene)thiazolidin-4-one]",22.4 ± 0.3,29.7 ± 0.9,26.5 ± 0.63,25.91 ± 0.02,1.30,19.8 ± 0.37,0.77,25.7 ± 0.53,8.76 ± 0.9,21.5 ± 0.44 µM,–,–,–
"O=C1C(=Cc2ccsc2)SC(=NN2CCOCC2)N1c1ccccc1 [Compound 16, 2-(Morpholinoimino)-3-phenyl-5-(thiophen-3-ylmethylene) thiazolidine-4-one]",31.4 ± 1.01,36.21 ± 0.17,35.7 ± 1.61,16.94 ± 0.01,1.46,29 ± 1.03,0.69,42.5 ± 0.18,24.08 ± 0.15,42 ± 0.81 µM,–,–,–
"O=C1C(=Cc2ccc(N3CCOCC3)cc2)SC(=NN2CCOCC2)N1c1ccccc1 [Compound 14, 2-(Morfolinoimino)-3-phenyl-5-(4-(morpholin-1-yl)benzylidene)thiazolidine-4-one]",26.31 ± 0.03,33.86 ± 0.11,30.3 ± 0.36,27.43 ± 0.00,1.34,19.2 ± 0.61,0.75,25.7 ± 1.05,8.1 ± 0.22,26.7 ± 0.52 µM,–,–,–
"O=C1C(=Cc2c[nH]c3ccccc23)SC(=NN2CCOCC2)N1c1ccccc1 [Compound 24, 5-((1H-Indol-3-yl)methylene)-2-(morpholinoimino)-3-phenylthiazolidin-4-one]",27.73 ± 0.23,33.24 ± 0.21,30 ± 1.01,30.04 ± 0.02,1.32,19.5 ± 0.29,0.76,25.7 ± 0.69,7.21 ± 0.27,23.6 µM and 22.5 µM,–,–,–
"S=C(Nc1ccccc1)NN1CCOCC1 [Compound 1, 1-Morpholino-3-phenylthiyourea]",79.37 ± 0.38,253.4 ± 0.6,48.9 ± 0.78,45.18 ± 0.01,0.91,130 ± 0.18,1.10,118.5 ± 0.34,35.13 ± 0.07,82.54 ± 0.29 µM,–,–,–
"O=C1C(=Cc2ccccc2)SC(=NN2CCOCC2)N1c1ccccc1 [Compound 3, 5-(Benzylidene)-2-(morpholinoimino)-3-phenylthiazolidine-4-one]",39.8 ± 0.67,52.13 ± 0.29,31.59 ± 0.04,35.89 ± 0.01,1.42,34.2 ± 0.63,0.70,48.72 ± 0.18,29.4 ± 0.49,56.8 ± 0.15 µM,–,–,–
"Cc1cc(C(C)(C)C)c(O)c(C(C)(C)C)c1 [BHT, butylated hydroxytoluene, reference compound]",2.34 ± 0.09,55 ± 0.99,2.91 ± 0.55,3.80 ± 0.02,–,–,–,–,–,–,–,–,–
"O=C1C(=Cc2ccc[nH]2)SC(=NN2CCOCC2)N1c1ccccc1 [Compound 18, 5-((1H-Pyrrol-2-yl)methylene)-2-(morpholinoimino)-3-phenylthiazolidin-4-one]",33.62 ± 0.04,35.07 ± 0.03,31.04 ± 0.17,26.60 ± 0.02,1.54,21.4 ± 0.92,0.65,32.9 ± 0.75,16 ± 0.41,20.2 ± 0.77 µM,–,–,–
Cn1cccc1C=C1SC(=NN2CCOCC2)N(c2ccccc2)C1=O [Compound 19],30.8 ± 0.47,34.45 ± 0.05,29.88 ± 0.2,25.67 ± 0.00,1.44,20.6 ± 0.55,0.69,29.7 ± 0.72,19.28 ± 0.09,18.2 ± 0.5 µM,–,–,–
"O=C1C(=Cc2ccccn2)SC(=NN2CCOCC2)N1c1ccccc1 [Compound 21, 2-(Morpholinoimino)-3-phenyl-5-(pyridin-2-ylmethylene)thiazolidin-4-one]",31.5 ± 0.48,35.01 ± 0.01,30.7 ± 0.56,30.77 ± 0.00,1.36,20.6 ± 1.02,0.73,28.1 ± 0.55,11.2 ± 0.39,27.8 ± 0.51 µM,–,–,–
"O=C1C(=Cc2ccc(Br)cc2)SC(=NN2CCOCC2)N1c1ccccc1 [Compound 4, 5-(4-Bromobenzylidene)-2-(morpholinoimino)-3-phenylthiazolidine-4-one]",34.7 ± 0.15,40.2 ± 0.77,23.7 ± 0.66,21.18 ± 0.00,1.43,27.7 ± 0.51,0.70,39.6 ± 0.74,28.4 ± 0.9,56.11 ± 0.22 µM,–,–,–
"COc1ccc(C=C2SC(=NN3CCOCC3)N(c3ccccc3)C2=O)cc1OC [Compound 7, 5-(3,4-Dimethoxy-benzylidene)-2-(morpholinoimino)-3-phenylthiazolidin-4-one]",38.24 ± 0.13,43.91 ± 0.29,31.55 ± 0.22,34.50 ± 0.01,1.34,30.4 ± 0.47,0.75,40.88 ± 0.16,27.72 ± 0.24,54.3 ± 0.62 µM,–,–,–
"Cc1c(C)c2c(c(C)c1O)CC[C@@](C)(CCC[C@H](C)CCC[C@H](C)CCCC(C)C)O2 [α-TOC, reference compound]",4.5 ± 0.09,12.26 ± 0.07,4.87 ± 0.45,40.48 ± 0.02,–,–,–,–,–,–,–,–,–
